# Measurements as given in the NIST ThermoML archive (doi:10.1016/j.fluid.2005.09.025).
# Numbers after ± are expanded uncertainties.
# Conditions: 298.15 K, 101.33 kPa, Liquid
mass density (Vibrating tube method) [kg/m3],mass density [kg/m3],Compound
786.55 ± 0.16,,CO [methanol]
,764.96 ± 0.35,CC1CCCCC1 [methylcyclohexane]
943.81 ± 0.09,,CN(C)C=O [dimethylformamide]
648.45 ± 0.22,,CCCC(C)C [2-methylpentane]
